Test results taken from patent publication US9840509B2, “Heterocyclic compounds” (CADILA HEALTHCARE LIMITED, priority 2014, dated 2017).

Assays:
[1] = target: T1, CYP 2C8 (Homo sapiens, UniProt P10632); experiment: CYP inhibition in human liver microsomes, 2C8; assay type: in vitro ADME; conditions: pH 7.4, @ 10 μM concn
T1 construct: from tissue; host or cells: human liver microsomes
T1 sequence (P10632 1-490): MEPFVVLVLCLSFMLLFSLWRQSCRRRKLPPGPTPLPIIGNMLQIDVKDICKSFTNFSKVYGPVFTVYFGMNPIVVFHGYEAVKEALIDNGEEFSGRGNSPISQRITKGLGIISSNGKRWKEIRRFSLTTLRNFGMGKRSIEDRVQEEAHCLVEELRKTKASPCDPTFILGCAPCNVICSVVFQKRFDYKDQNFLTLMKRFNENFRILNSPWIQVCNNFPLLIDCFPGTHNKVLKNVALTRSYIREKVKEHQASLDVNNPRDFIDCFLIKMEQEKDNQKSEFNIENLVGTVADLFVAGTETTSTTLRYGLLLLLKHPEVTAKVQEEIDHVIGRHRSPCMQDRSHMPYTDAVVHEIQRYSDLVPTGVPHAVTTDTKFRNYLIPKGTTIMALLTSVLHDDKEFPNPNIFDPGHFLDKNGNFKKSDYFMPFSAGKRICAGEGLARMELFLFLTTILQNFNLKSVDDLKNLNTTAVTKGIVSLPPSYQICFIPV
Outline: (§1)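 Human liver microsomes in 100 mM phosphate pH 7.4 with CYP-specific probe substrate were incubated with test compound at […] and 10 μM, started with 1 mM NADPH at 37° C. Reactions were stopped with acetonitrile, and marker-reaction metabolites were quantified by LC-MS/MS. Final solvent was ≤0.2%.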

[2] = target: T2, CYP 2C19 (Homo sapiens, UniProt P33261); experiment: CYP inhibition in human liver microsomes, 2C19; assay type: in vitro ADME; conditions: pH 7.4, @ 10 μM concn
T2 construct: from tissue; host or cells: human liver microsomes
T2 sequence (P33261 whole entry): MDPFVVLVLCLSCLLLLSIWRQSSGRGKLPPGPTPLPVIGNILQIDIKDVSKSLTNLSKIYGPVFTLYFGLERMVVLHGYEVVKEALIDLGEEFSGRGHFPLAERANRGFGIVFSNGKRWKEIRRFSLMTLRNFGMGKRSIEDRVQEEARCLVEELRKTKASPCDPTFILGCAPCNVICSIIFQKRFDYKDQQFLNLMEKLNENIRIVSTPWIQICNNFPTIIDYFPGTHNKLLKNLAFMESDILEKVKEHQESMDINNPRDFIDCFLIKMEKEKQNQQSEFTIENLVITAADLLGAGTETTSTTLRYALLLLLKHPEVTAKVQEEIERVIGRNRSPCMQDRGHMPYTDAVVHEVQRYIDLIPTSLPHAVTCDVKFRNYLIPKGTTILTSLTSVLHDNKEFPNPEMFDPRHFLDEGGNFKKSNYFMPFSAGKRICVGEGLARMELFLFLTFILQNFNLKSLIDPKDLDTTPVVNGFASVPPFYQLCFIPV
Outline: as §1

[3] = target: T3, CYP 1A2 (Homo sapiens, UniProt P05177); experiment: CYP inhibition in human liver microsomes, 1A2; assay type: in vitro ADME; conditions: pH 7.4, @ 10 μM concn
T3 construct: from tissue; host or cells: human liver microsomes
T3 sequence (P05177 1-516): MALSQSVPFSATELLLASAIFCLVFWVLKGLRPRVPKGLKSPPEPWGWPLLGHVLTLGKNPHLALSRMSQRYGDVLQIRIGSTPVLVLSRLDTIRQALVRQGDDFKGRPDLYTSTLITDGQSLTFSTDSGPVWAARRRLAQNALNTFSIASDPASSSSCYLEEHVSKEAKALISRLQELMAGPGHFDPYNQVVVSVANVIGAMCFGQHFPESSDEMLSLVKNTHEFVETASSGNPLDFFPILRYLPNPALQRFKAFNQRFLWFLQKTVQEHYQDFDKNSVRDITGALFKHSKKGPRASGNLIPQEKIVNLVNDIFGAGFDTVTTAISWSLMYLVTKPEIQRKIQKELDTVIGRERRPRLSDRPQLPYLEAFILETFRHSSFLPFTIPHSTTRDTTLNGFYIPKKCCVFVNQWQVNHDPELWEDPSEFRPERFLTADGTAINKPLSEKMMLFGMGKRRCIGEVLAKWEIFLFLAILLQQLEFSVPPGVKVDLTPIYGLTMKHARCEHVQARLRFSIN
Outline: as §1

[4] = target: T4, recombinant purified human BTK (Homo sapiens, UniProt Q06187); experiment: In vitro BTK kinase assay on ADP Glo platform; assay type: biochemical; conditions: 2 hr room temperature, read-out: In-vitro BTK inhibitory activity: IC50
T4 construct: purchased SignalChem, USA
T4 sequence (Q06187 whole entry): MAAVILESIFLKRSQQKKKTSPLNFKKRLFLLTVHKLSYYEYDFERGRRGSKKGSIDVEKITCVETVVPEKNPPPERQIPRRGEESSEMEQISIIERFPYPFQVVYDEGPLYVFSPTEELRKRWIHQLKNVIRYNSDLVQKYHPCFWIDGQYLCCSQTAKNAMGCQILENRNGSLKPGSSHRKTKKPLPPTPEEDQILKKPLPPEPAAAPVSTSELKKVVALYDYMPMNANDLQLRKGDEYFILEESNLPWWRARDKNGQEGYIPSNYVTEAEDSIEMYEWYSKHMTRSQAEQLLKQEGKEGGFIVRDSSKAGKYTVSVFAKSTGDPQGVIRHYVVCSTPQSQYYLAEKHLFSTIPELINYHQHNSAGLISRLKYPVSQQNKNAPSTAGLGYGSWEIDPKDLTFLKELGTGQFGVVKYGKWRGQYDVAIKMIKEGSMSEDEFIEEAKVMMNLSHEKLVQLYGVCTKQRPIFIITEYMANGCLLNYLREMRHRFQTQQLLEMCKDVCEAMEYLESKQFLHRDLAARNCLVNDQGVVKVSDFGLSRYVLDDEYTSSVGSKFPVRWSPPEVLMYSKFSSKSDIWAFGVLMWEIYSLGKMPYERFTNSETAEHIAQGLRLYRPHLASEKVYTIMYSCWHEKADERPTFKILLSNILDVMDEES
Outline: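 Recombinant human BTK (3 ng/reaction) with compound dilutions in Tris pH 7.5, MgCl2/MnCl2, BSA, DTT; started with 50 µM ATP (final) and polyGln4Tyr1 substrate, 2 h at room temperature. ADP formed detected by ADP-Glo luminescence; IC50 by nonlinear fit versus uninhibited enzyme as 100%.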

[5] = target: T5, CYP 3A4 (Homo sapiens, UniProt P08684); experiment: CYP inhibition in human liver microsomes, 3A4; assay type: in vitro ADME; conditions: pH 7.4, @ 10 μM concn
T5 construct: from tissue; host or cells: human liver microsomes
T5 sequence (P08684 whole entry): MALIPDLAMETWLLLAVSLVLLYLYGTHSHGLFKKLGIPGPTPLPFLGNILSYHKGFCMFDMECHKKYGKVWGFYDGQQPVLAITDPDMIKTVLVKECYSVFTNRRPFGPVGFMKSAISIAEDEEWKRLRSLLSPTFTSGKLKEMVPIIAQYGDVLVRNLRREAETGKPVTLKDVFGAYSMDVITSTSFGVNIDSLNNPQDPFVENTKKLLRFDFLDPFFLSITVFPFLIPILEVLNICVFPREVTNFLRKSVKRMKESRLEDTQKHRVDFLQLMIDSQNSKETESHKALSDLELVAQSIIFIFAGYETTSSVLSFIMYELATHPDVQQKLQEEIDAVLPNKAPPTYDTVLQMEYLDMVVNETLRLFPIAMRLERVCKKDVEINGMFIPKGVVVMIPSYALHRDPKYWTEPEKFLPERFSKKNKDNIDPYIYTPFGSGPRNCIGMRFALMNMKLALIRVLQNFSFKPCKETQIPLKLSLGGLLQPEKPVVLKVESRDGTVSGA
Outline: as §1

[6] = target: T6, CYP 2C9 (Homo sapiens, UniProt P11712); experiment: CYP inhibition in human liver microsomes, 2C9; assay type: in vitro ADME; conditions: pH 7.4, @ 10 μM concn
T6 construct: from tissue; host or cells: human liver microsomes
T6 sequence (P11712 whole entry): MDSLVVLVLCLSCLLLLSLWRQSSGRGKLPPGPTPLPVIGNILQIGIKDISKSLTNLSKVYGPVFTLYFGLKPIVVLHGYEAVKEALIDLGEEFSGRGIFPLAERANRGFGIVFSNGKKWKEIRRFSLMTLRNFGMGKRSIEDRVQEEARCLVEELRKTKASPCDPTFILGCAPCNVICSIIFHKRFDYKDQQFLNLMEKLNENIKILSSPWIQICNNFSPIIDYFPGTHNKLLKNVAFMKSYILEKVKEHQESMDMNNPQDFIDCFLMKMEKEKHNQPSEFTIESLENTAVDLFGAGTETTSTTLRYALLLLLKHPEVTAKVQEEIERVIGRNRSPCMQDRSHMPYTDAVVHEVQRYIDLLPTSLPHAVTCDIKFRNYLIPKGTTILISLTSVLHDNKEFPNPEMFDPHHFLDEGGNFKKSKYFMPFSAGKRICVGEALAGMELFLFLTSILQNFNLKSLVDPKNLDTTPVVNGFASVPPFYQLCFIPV
Outline: as §1

[7] = target: T7, CYP 2D6 (Homo sapiens, UniProt P10635); experiment: CYP inhibition in human liver microsomes, 2D6; assay type: in vitro ADME; conditions: pH 7.4, @ 10 μM concn
T7 construct: from tissue; host or cells: human liver microsomes
T7 sequence (P10635 whole entry): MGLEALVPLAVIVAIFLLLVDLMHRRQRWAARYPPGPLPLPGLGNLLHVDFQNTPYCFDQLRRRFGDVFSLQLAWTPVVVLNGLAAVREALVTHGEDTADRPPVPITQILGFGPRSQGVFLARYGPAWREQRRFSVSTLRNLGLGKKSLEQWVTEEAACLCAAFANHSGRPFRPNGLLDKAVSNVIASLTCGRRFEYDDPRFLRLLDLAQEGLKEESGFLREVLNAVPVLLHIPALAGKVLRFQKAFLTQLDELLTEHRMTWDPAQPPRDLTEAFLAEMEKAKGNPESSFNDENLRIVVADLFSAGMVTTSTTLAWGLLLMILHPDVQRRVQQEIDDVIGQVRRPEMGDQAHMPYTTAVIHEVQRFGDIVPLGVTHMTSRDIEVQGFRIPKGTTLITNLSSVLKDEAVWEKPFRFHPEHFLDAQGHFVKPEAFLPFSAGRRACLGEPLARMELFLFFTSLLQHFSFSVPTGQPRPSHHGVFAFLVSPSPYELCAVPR
Outline: as §1

| Structure (SMILES) | inhibition at 10 μM [1] [%] | inhibition at 10 μM [2] [%] | inhibition at 10 μM [3] [%] | IC50 [4] [nM] | inhibition at 10 μM [5] [%] | inhibition at 10 μM [6] [%] | inhibition at 10 μM [7] [%] |
| --- | --- | --- | --- | --- | --- | --- | --- |
| C=CC(=O)N1CC2CC(n3nc(-c4ccc(C(=O)Nc5cc(C(F)(F)F)ccn5)cc4)c4c(N)ncnc43)CC2C1 (centres unmarked) [Compound 40, 4-(1-(2-acryloyloctahydrocyclopenta[c]pyrrol-5-yl)-4-amino-1H-pyrazolo[3,4-d]pyrimidin-3-yl)-N-(4-(trifluoromethyl)pyridin-2-yl)benzamide] | < 50 | < 50 | > 50 | 6 | < 50 | > 50 | < 50 |
| C=CC(=O)N1CC2CC(n3nc(-c4ccc(C(=O)Nc5cc(C)ccn5)c(OC)c4)c4c(N)ncnc43)CC2C1 (centres unmarked) [Compound 29, 4-(1-(2-acryloyloctahydrocyclopenta[c]pyrrol-5-yl)-4-amino-1H-pyrazolo[3,4-d]pyrimidin-3-yl)-2-methoxy-N-(4-methylpyridin-2-yl)benzamide] | < 50 | < 50 | < 50 | 1.2 | < 50 | < 50 | < 50 |
| C=CC(=O)N1CC2CC(n3nc(-c4ccc(C(=O)Nc5cnccn5)cc4)c4c(N)ncnc43)CC2C1 (centres unmarked) [Compound 37, 4-(1-(2-acryloyloctahydrocyclopenta[c]pyrrol-5-yl)-4-amino-1H-pyrazolo[3,4-d]pyrimidin-3-yl)-N-(pyrazin-2-yl)benzamide] | < 50 | < 50 | < 50 | 1 | < 50 | < 50 | < 50 |

Next, values leading:

| inhibition at 10 μM [1] [%] | inhibition at 10 μM [2] [%] | inhibition at 10 μM [3] [%] | IC50 [4] [nM] | inhibition at 10 μM [5] [%] | inhibition at 10 μM [6] [%] | inhibition at 10 μM [7] [%] | Structure (SMILES) |
| --- | --- | --- | --- | --- | --- | --- | --- |
| < 50 | < 50 | < 50 | 1.4 | < 50 | < 50 | < 50 | CN(C)C/C=C/C(=O)N1CC2CC(n3nc(-c4ccc(C(=O)Nc5ccccn5)cc4)c4c(N)ncnc43)CC2C1 (centres unmarked) [Compound 44, (E)-4-(4-amino-1-(2-(4-(dimethylamino)but-2-enoyl)octahydrocyclopenta [c]pyrrol-5-yl)-1H-pyrazolo[3,4-d]pyrimidin-3-yl)-N-(pyridin-2-yl) benzamide] |
| < 50 | < 50 | < 50 | 3 | < 50 | < 50 | < 50 | CN(C)C/C=C/C(=O)N1CC2CC(n3nc(-c4ccc(Oc5ccccn5)cc4)c4c(N)ncnc43)CC2C1 (centres unmarked) [Compound 47, (E)-1-(5-(4-amino-3-(4-(pyridin-2-yloxy)phenyl)-1H-pyrazolo[3,4-d]pyrimidin-1-yl)hexahydrocyclopenta[c]pyrrol-2(1H)-yl)-4-(dimethylamino)but-2-en-1-one] |
